Assay results: the supplement of paper PMC11061612

Assays:
Assay in all cases: combination Emax (second highest fraction inhibited in the dose matrix, 72 h); higher = more inhibition; extreme values may be limits of the assay
[1] = tested on: WSU-DLCL2 (B-Cell Non-Hodgkin's Lymphoma)
Summary of the method: (§1)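 After 24 hours at 37°C and 5% CO2 in 1536-well plates, cells in DMEM/F12 or RPMI plus 10% FBS received two-drug dose matrices for 72 hours. Viability came from CellTiter-Glo 2.0 luminescence and was scaled as inhibition, anchored at 0 by vehicle wells and at 1 by blank wells. Combination Emax is taken as the second-highest inhibition in the matrix, and Bliss excess as the observed combination effect less EA + EB − EA·EB, with EA and EB the single-agent effects.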

[2] = tested on: SNG-M (Endometrial Carcinoma)
Summary of the method: as §1

[3] = tested on: H4 (Low Grade Glioma)
Summary of the method: as §1

[4] = tested on: SLVL (B-Cell Non-Hodgkin's Lymphoma)
Summary of the method: as §1

[5] = tested on: HCC38 (Breast Carcinoma)
Summary of the method: as §1

[6] = tested on: EW-22 (Ewing's Sarcoma)
Summary of the method: as §1

[7] = tested on: D-392MG (Glioblastoma)
Summary of the method: as §1

[8] = tested on: SK-LMS-1 (Other Solid Carcinomas)
Summary of the method: as §1

[9] = tested on: P31-FUJ (Acute Myeloid Leukemia)
Summary of the method: as §1

[10] = tested on: BICR78 (Oral Cavity Carcinoma)
Summary of the method: as §1

[11] = tested on: Saos-2 (Osteosarcoma)
Summary of the method: as §1

[12] = tested on: HLE (Hepatocellular Carcinoma)
Summary of the method: as §1

[13] = tested on: FU-OV-1 (Ovarian Carcinoma)
Summary of the method: as §1

[14] = tested on: SW948 (Colorectal Carcinoma)
Summary of the method: as §1

[15] = tested on: NOMO-1 (Acute Myeloid Leukemia)
Summary of the method: as §1

[16] = tested on: SK-UT-1 (Other Solid Carcinomas)
Summary of the method: as §1

[17] = tested on: DOK (Oral Cavity Carcinoma)
Summary of the method: as §1

[18] = tested on: YT (Other Blood Carcinomas)
Summary of the method: as §1

[19] = tested on: D-283MED (Other Solid Carcinomas)
Summary of the method: as §1

[20] = tested on: SK-MEL-1 (Melanoma)
Summary of the method: as §1

| SMILES | combination Emax [1] | combination Emax [2] | combination Emax [3] | combination Emax [4] | combination Emax [5] | combination Emax [6] | combination Emax [7] | combination Emax [8] | combination Emax [9] | combination Emax [10] | combination Emax [11] | combination Emax [12] | combination Emax [13] | combination Emax [14] | combination Emax [15] | combination Emax [16] | combination Emax [17] | combination Emax [18] | combination Emax [19] | combination Emax [20] |
| --- | --- | --- | --- | --- | --- | --- | --- | --- | --- | --- | --- | --- | --- | --- | --- | --- | --- | --- | --- | --- |
| C=CCn1c(=O)c2cnc(Nc3ccc(N4CCN(C)CC4)cc3)nc2n1-c1cccc(C(C)(C)O)n1 [AZD1775] + CCc1c2c(nc3ccc(O)cc13)-c1cc3c(c(=O)n1C2)COC(=O)[C@]3(O)CC [SN-38] (first compound max 1 µM, partner max 0.3 µM) | 1 | 0.77 | 0.908 | 0.967 | 0.751 | 0.94 | 0.569 | 0.898 | 0.985 | 0.854 | 0.964 | 0.791 | 0.711 | 0.862 | 0.992 | 0.982 | 0.745 | 0.977 | 0.996 | 0.56 |
| C=CCn1c(=O)c2cnc(Nc3ccc(N4CCN(C)CC4)cc3)nc2n1-c1cccc(C(C)(C)O)n1 [AZD1775] + Nc1ccn([C@@H]2O[C@H](CO)[C@@H](O)C2(F)F)c(=O)n1 [Gemcitabine] (first compound max 1 µM, partner max 0.3 µM) | 1 | 0.751 | 0.949 | 0.954 | 0.747 | 0.921 | 0.597 | 0.804 | 1 | 0.718 | 0.843 | 0.709 | 0.633 | 0.879 | 0.992 | 0.916 | 0.66 | 0.997 | 0.995 | 0.422 |
| CN(CCO)CC[C@H](CSc1ccccc1)Nc1ccc(S(=O)(=O)NC(=O)c2ccc(N3CCC([C@@H](O)c4ccccc4-c4ccc(Cl)cc4)CC3)cc2)cc1S(=O)(=O)C(F)(F)F [AZD4320] + CC(=O)O[C@H]1C(=O)[C@@]2(C)[C@H]([C@H](OC(=O)c3ccccc3)[C@]3(O)C[C@H](OC(=O)[C@H](O)[C@@H](NC(=O)c4ccccc4)c4ccccc4)C(C)=C1C3(C)C)[C@]1(OC(C)=O)CO[C@@H]1C[C@@H]2O [Paclitaxel] (first compound max 1 µM, 7x7, partner max 3 µM) | 1 | 1 | 1 | 1 | 0.77 | 0.999 | 1 | 1 | 1 | 0.941 | 0.968 | 0.93 | 0.716 | 0.942 | 0.985 | 0.977 | 0.99 | 1 | 1 | 0.623 |
| CN(CCO)CC[C@H](CSc1ccccc1)Nc1ccc(S(=O)(=O)NC(=O)c2ccc(N3CCC([C@@H](O)c4ccccc4-c4ccc(Cl)cc4)CC3)cc2)cc1S(=O)(=O)C(F)(F)F [AZD4320] + CS(=O)(=O)CCNCc1ccc(-c2ccc3ncnc(Nc4ccc(OCc5cccc(F)c5)c(Cl)c4)c3c2)o1 [Lapatinib] (first compound max 1 µM, 7x7, partner max 10 µM) | 0.967 | 0.92 | 0.93 | 0.98 | 0.913 | 0.971 | 0.492 | 0.817 | 0.959 | 0.456 | 0.746 | 0.945 | 0.59 | 0.96 | 0.709 | 0.906 | 0.982 | 0.451 | 0.988 | 0.808 |
| CN(CCO)CC[C@H](CSc1ccccc1)Nc1ccc(S(=O)(=O)NC(=O)c2ccc(N3CCC([C@@H](O)c4ccccc4-c4ccc(Cl)cc4)CC3)cc2)cc1S(=O)(=O)C(F)(F)F [AZD4320] + Nc1ccn([C@@H]2O[C@H](CO)[C@@H](O)C2(F)F)c(=O)n1 [Gemcitabine] (first compound max 1 µM, 7x7, partner max 0.3 µM) | 1 | 0.913 | 0.988 | 1 | 0.813 | 0.999 | 0.96 | 0.984 | 0.959 | 0.63 | 0.984 | 0.887 | 0.245 | 0.524 | 0.987 | 0.978 | 0.859 | 0.862 | 1 | 0.649 |
| Cc1c2c(nn1C)CSCc1cc(n(C)n1)CSc1cc(c3ccccc3c1)OCCCc1c(C(=O)O)n(C)c3c-2c(Cl)ccc13 [AZD5991] + CC(=O)O[C@H]1C(=O)[C@@]2(C)[C@H]([C@H](OC(=O)c3ccccc3)[C@]3(O)C[C@H](OC(=O)[C@H](O)[C@@H](NC(=O)c4ccccc4)c4ccccc4)C(C)=C1C3(C)C)[C@]1(OC(C)=O)CO[C@@H]1C[C@@H]2O [Paclitaxel] (first compound max 1 µM, 7x7, partner max 3 µM) | 1 | 1 | 0.995 | 0.954 | 0.571 | 0.871 | 0.734 | 0.919 | 1 | 0.701 | 0.961 | 0.825 | 0.474 | 0.884 | 1 | 0.884 | 0.977 | 1 | 1 | 0.21 |
| Cc1c2c(nn1C)CSCc1cc(n(C)n1)CSc1cc(c3ccccc3c1)OCCCc1c(C(=O)O)n(C)c3c-2c(Cl)ccc13 [AZD5991] + CS(=O)(=O)CCNCc1ccc(-c2ccc3ncnc(Nc4ccc(OCc5cccc(F)c5)c(Cl)c4)c3c2)o1 [Lapatinib] (first compound max 1 µM, 7x7, partner max 10 µM) | 1 | 0.177 | 0.484 | 0.341 | 0.366 | 0.41 | 0.104 | 0.265 | 0.985 | 0.445 | 0.497 | 0.23 | 0.42 | 0.26 | 0.88 | 0.485 | 0.987 | 1 | 0.986 | 0.37 |
| Cc1c2c(nn1C)CSCc1cc(n(C)n1)CSc1cc(c3ccccc3c1)OCCCc1c(C(=O)O)n(C)c3c-2c(Cl)ccc13 [AZD5991] + Nc1ccn([C@@H]2O[C@H](CO)[C@@H](O)C2(F)F)c(=O)n1 [Gemcitabine] (first compound max 1 µM, 7x7, partner max 0.3 µM) | 1 | 0.882 | 0.949 | 0.968 | 0.711 | 0.933 | 0.642 | 0.83 | 0.992 | 0.642 | – | 0.713 | 0.196 | 0.334 | 0.997 | 0.904 | 0.684 | 1 | 0.986 | 0.441 |
| C[C@@H]1COCCN1c1cc(C2([S@](C)(=N)=O)CC2)nc(-c2ccnc3[nH]ccc23)n1 [AZD6738] + C1CC(C1)(C(=O)[O-])C(=O)[O-].N.N.[Pt+2] [Carboplatin] (first compound max 10 µM, 7x7, partner max 10 µM) | 0.767 | 0.89 | 0.708 | 0.659 | 0.52 | 0.851 | 0.423 | 0.448 | 0.922 | 0.58 | 0.544 | 0.458 | 0.254 | 0.566 | 0.946 | 0.779 | 0.459 | 0.76 | 0.996 | 0.32 |
| C[C@@H]1COCCN1c1cc(C2([S@](C)(=N)=O)CC2)nc(-c2ccnc3[nH]ccc23)n1 [AZD6738] + Nc1ccn([C@@H]2O[C@H](CO)[C@@H](O)C2(F)F)c(=O)n1 [Gemcitabine] (first compound max 10 µM, 7x7, partner max 0.3 µM) | 1 | 0.934 | 0.957 | 0.955 | 0.744 | 0.949 | 0.625 | 0.858 | 1 | 0.79 | 0.83 | 0.834 | 0.67 | 0.873 | 1 | 0.979 | 0.782 | 1 | 1 | 0.528 |
| Cc1cc2ncnn2cc1Nc1ncc2c(n1)n(C1CCOCC1)c(=O)n2C [AZD7648] + COc1cc([C@@H]2c3cc4c(cc3[C@@H](O[C@@H]3O[C@@H]5CO[C@@H](C)O[C@H]5[C@H](O)[C@H]3O)[C@H]3COC(=O)[C@H]23)OCO4)cc(OC)c1O [Etoposide] (first compound max 10 µM, 7x7, partner max 10 µM) | 1 | 0.867 | 0.756 | 0.924 | 0.486 | 0.938 | 0.489 | 0.822 | 0.967 | 0.666 | 0.827 | 0.729 | 0.603 | 0.524 | 0.98 | 0.926 | 0.572 | 0.974 | 0.979 | 0.558 |
| N#Cc1cnc(Nc2cc(NC[C@H]3CNCCO3)c(C(F)(F)F)cn2)cn1 [SRA737] + O=c1[nH]cc(F)c(=O)[nH]1 [5-Fluorouracil] (first compound max 10 µM, 7x7, partner max 20 µM) | – | 0.71 | 0.619 | 0.927 | 0.507 | 0.736 | 0.313 | 0.268 | 0.98 | 0.55 | 0.457 | 0.129 | 0.158 | 0.45 | 0.985 | 0.799 | 0.345 | 0.993 | – | 0.157 |
